Laboratory results from PubChem BioAssay AID743430 (The Scripps Research Institute Molecular Screening Center, 2014).
Active and inactive are the calls of the source. The rule behind the calls is not given here.

These compounds were tested against Sphingosine 1-phosphate receptor 4 (Homo sapiens) (UniProt O95977) (assay: S1P4 receptor agonist activity, late-stage follow-up, counter-screen for S1PR3 antagonist project, cell-based, FRET, dose response (AID 743430)). Conditions: S1P4-expressing cells, FRET reporter, agonist mode.
Sphingosine 1-phosphate receptor 4 (Homo sapiens), sequence (O95977 whole entry, looked up): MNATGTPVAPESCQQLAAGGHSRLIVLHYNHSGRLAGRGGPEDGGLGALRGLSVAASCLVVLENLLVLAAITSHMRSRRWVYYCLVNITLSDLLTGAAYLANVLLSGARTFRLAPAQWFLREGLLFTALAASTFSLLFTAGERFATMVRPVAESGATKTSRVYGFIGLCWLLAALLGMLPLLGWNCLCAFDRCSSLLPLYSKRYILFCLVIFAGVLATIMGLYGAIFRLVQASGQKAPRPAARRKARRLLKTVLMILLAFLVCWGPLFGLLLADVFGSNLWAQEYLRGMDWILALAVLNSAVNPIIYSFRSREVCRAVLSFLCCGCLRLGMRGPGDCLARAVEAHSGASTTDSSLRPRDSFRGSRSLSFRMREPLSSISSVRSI

| SMILES | EC50 |
| --- | --- |
| O=C(NC(c1ccc(Cl)c(Cl)c1)c1nc(-c2ccccc2)no1)c1ccccc1 (configuration not stated) | > 50 µM (inactive) |
| O=C(NC(c1nc(-c2ccccc2)no1)C1CCCCC1)c1ccc(Cl)c(Cl)c1 (configuration not stated) | > 50 µM (inactive) |
| O=C(NC(c1ccc(Cl)cc1)c1nc(-c2ccccn2)no1)c1cccc(Cl)c1 (configuration not stated) | > 50 µM (inactive) |
| O=C(NC(Cc1ccccc1)c1nc(-c2ccccc2)no1)c1cccc(Cl)c1 (configuration not stated) | > 50 µM (inactive) |
| O=C(NC(c1cccc(Cl)c1)c1nc(-c2ccccc2)no1)c1cccc(Cl)c1 (configuration not stated) | > 50 µM (inactive) |
| O=C(NC(c1ccc(Cl)cc1)c1nc(-c2cccc(Cl)c2)no1)c1cccc(Cl)c1 (configuration not stated) | > 50 µM (inactive) |
| O=C(NC(c1cccc(Cl)c1)c1nc(-c2ccccc2)no1)c1cc(Cl)cc(Cl)c1 (configuration not stated) | > 50 µM (inactive) |
| O=C(NC(c1ccccc1)c1nc(-c2ccccc2)no1)c1cccc(Cl)n1 (configuration not stated) | > 50 µM (inactive) |
| O=C(NC(c1nc(-c2ccccc2)no1)C1CCOCC1)c1ccc(Cl)c(Cl)c1 (configuration not stated) | > 50 µM (inactive) |
| COc1ccc(C(=O)NC(c2ccccc2)c2nc(-c3ccccc3)no2)cc1 (configuration not stated) | > 50 µM (inactive) |
| Cc1ccc(C(=O)NC(c2ccccc2)c2nc(-c3ccccc3)no2)cc1 (configuration not stated) | > 50 µM (inactive) |
| O=C(NC(c1ccccc1)c1nc(-c2ccccc2)no1)c1cccc(Br)c1 (configuration not stated) | inactive |
| O=C(c1cccc(Cl)c1)N(CCO)C(c1ccc(Cl)c(Cl)c1)c1nc(-c2ccccc2)no1 (configuration not stated) | > 50 µM (inactive) |
| CCc1ccc(C(NC(=O)c2cccc(Cl)c2)c2nc(-c3ccccc3)no2)cc1 (configuration not stated) | > 50 µM (inactive) |
| O=C(NC(c1ccccc1)c1nc(-c2ccccc2)no1)c1cccc(Cl)c1 (configuration not stated) | > 50 µM (inactive) |

Other lines, results leading:

| EC50 | SMILES |
| --- | --- |
| > 50 µM (inactive) | O=C(NC(c1ccc(Cl)cc1)c1nc(-c2ccccc2)no1)c1ccc(Cl)c(Br)c1 (configuration not stated) |
| > 50 µM (inactive) | O=C(NC(c1ccc(Cl)cc1)c1nc(-c2ccccc2)no1)c1cccc(Cl)c1 (configuration not stated) |
| > 50 µM (inactive) | O=C(NC(c1ccc(Cl)c(Cl)c1)c1nc(-c2ccccc2)no1)c1ccc(Cl)c(Cl)c1 (configuration not stated) |
| > 50 µM (inactive) | O=C(NC(c1ccccc1)c1nc(-c2ccccc2)no1)c1ccc(Cl)cc1 (configuration not stated) |
| > 50 µM (inactive) | O=C(NC(c1ccc(Cl)c(Cl)c1)c1nc(-c2ccccc2)no1)c1cccc(Cl)c1 (configuration not stated) |
| > 50 µM (inactive) | O=C(NC(c1ccc(Cl)cc1)c1nc(-c2ccccc2)no1)c1cccc(Br)c1 (configuration not stated) |
| > 50 µM (inactive) | Cc1ccc(C(NC(=O)c2cccc(Cl)c2)c2nc(-c3ccccc3)no2)cc1 (configuration not stated) |
| > 50 µM (inactive) | O=C(NC(c1ccc(Cl)cc1)c1nc(-c2ccccc2)no1)c1ccc(Cl)c(Cl)c1 (configuration not stated) |
| > 50 µM (inactive) | O=C(NC(c1ccc(Cl)c(Cl)c1)c1nc(-c2ccccc2)no1)c1ccc(Cl)cc1 (configuration not stated) |
| > 50 µM (inactive) | O=C(NC(c1cccc(Cl)c1)c1nc(-c2ccccc2)no1)c1ccc(Cl)c(Cl)c1 (configuration not stated) |
| > 50 µM (inactive) | N#Cc1ccc(C(=O)NC(c2ccc(Cl)c(Cl)c2)c2nc(-c3ccccc3)no2)cc1 (configuration not stated) |
| > 50 µM (inactive) | O=C(NC(c1ccc(Br)cc1)c1nc(-c2ccccc2)no1)c1ccc(Cl)c(Cl)c1 (configuration not stated) |
